The inhibition is the relative decrease from the control value, in per cent.

Assay [1] deals with T1, glycineB binding site of the NMDA receptor channel (Rattus norvegicus, UniProt P35439).
T1 construct: the cortex and hippocampus are dissected out of freshly harvested rat brains and homogenised; from tissue; host or cells: rat (Wistar, male) brain cortex and hippocampus membrane homogenate
In words: Receptor binding study, displacement of (3H)-MDL 105.519 from rat brain membrane homogenates. The following applies: 10 μM of the compound under test, rat cortex and hippocampus membrane homogenate; for inhibition at 10 µM: read-out: % inhibition (percentage fraction of the bound radioactive ligand displaced from its specific binding). The method, then: (a) Receptor Binding Study (glycineB Binding Site of the NMDA Receptor Channel)
The affinity of the compounds of the above general formula I used according to the invention for the glycine binding site of the NMDA receptor channel is determined using brain membrane homogenates (homogenate of cortex and hippocampus area from the brain of male rats, Wistar strain), as for example described in B. M. Baron, B. W. Siegel, B. L. Harrison, R. S. Gross, C. Hawes and P. Towers, Journal of Pharmacology and Experimental Therapeutics, (1996), vol. 279, page 62. The corresponding literature description is hereby introduced as a reference and is deemed to be part of the disclosure.
To this end, the cortex and hippocampus are dissected out of freshly harvested rat brains and homogenised with ice cooling in 5 mmol/l of TRIS-acetate buffer, […] of sucrose, pH 7.4 (10 ml/g fresh weight) using a Potter homogeniser (Braun/Melsungen, 10 piston strokes at 500 rpm) and then centrifuged for 10 minutes at 1,000 g and 4° C. The first supernatant is collected and the sediment again homogenised with ice cooling with 5 mmol/l of tris-acetate buffer, 0.32 mol/l of sucrose, pH 7.4 (5 ml/g of original fresh weight) with the Potter homogeniser (10 piston strokes at 500 rpm) and centrifuged for 10 minutes at 1,000 g and 4° C. The resultant supernatant is combined with the supernatant from the first centrifugation and centrifuged at 17,000 g for 20 minutes at 4° C. The supernatant after this centrifugation is discarded and the membrane sediment resuspended with 5 mmol/l of TRIS-acetate buffer, pH 8.0 (20 ml/g of original fresh weight) and homogenised with 10 piston strokes at 500 rpm.
The membrane homogenate is then incubated for 1 hour at 4° C. and centrifuged for 30 minutes at 50,000 g and 4° C. The supernatant is discarded and the centrifuge tubes containing the membrane sediment are sealed with Parafilm and frozen for 24 hours at −20° C. On the following day, the membrane sediment is thawed and resuspended with ice-cold 5 mmol/I TRIS-acetate buffer, 0.1% saponin (wt./vol.), pH 7.0 (10 ml/g of original fresh weight) and homogenised with 10 piston strokes at 500 rpm and then centrifuged for 20 minutes at 50,000 g and 4° C. The resultant supernatant is discarded and the sediment resuspended in a small volume with 5 mmol/l of TRIS-acetate buffer, pH 7.0 (approx. 2 ml/g of original fresh weight) and again homogenised with 10 piston strokes at 500 rpm. After determination of the protein content, the membrane homogenate is adjusted with 5 mmol/l TRIS-acetate buffer, pH 7.0, to a protein concentration of 10 mg of protein/ml and frozen in aliquots until used for testing.
The receptor binding test is performed by thawing aliquots, diluting them 1:10 with 5 mmol/l TRIS-acetate buffer, pH 7.0, homogenising them with ice-cooling with 10 piston strokes at 500 rpm with the Potter homogeniser (10 piston strokes at 500 rpm) and centrifuging them for 60 minutes at 55,000 g at 4° C. The supernatant is decanted and the membrane sediment adjusted with ice-cold 50 mmol/l TRIS-acetate buffer, pH 7.0, to a protein concentration of 1 mg/ml and again homogenised with 10 piston strokes at 500 rpm and kept in suspension in an ice bath with stirring on a magnetic stirrer. This membrane homogenate is used in the receptor binding test in a quantity of 100 μl per 1 ml batch (0.1 mg of protein/ml in the final batch). In the binding test, the buffer used is 50 mmol/l TRIS-acetate buffer, pH 7.0, and the radioactive ligand […] of (3H)-MDL 105.519 (B. M. Baron et al. 1996). The level of nonspecific binding is determined in the presence of 1 mmol/l of glycine.
In further batches, the compounds used according to the invention are added in concentration series and the displacement of the radioactive ligand from its specific binding at the glycine-binding site of the NMDA receptor channel is determined. […]

Another assay concerns male albino mice (NMRI). In words: Formaldehyde test (mouse), second (late) phase. The following applies: formaldehyde-induced nociception. It counts as in vivo. As for the experimental part: (b) Formaldehyde Test (Mouse)
The investigations for determining the antinociceptive action of the substituted 2-heteroarylaminoacetic acid compounds of the above general formula I used according to the invention are carried out by the formaldehyde test on male albino mice (NMRI, 25-35 g, Iffa, Credo, Belgium).
In the formaldehyde test, a distinction is drawn between the first (early) phase (0-15 min after formaldehyde injection) and the second (late) phase (15-60 min after formaldehyde injection) (D. Dubuisson et al., Pain, vol. 4, pp. 161-174 (1977)). The early phase, being a direct response to the formaldehyde injection, is considered to be a model of acute pain, while the late phase is considered to be a model of persistent (chronic) pain (T. J. Coderre et al., Pain, vol. 52, pp. 259-285 (1993)). The corresponding literature descriptions are hereby introduced as a reference and are deemed to be part of the disclosure.
The substituted 2-heteroarylaminoacetic acid compounds of the above general formula I used according to the invention are investigated in the second phase of the formaldehyde test in order to obtain information regarding the action of the substances in chronic/inflammatory pain.
A nociceptive reaction is induced in the freely mobile test animals by a single, subcutaneous formaldehyde injection (20 μl, 1% aqueous solution) into the dorsal side of the rear hind paw, the reaction being expressed by distinct licking and biting of the affected paw.
For the investigation period in the second (late) phase of the formaldehyde test, nociceptive behaviour is continuously recorded by observing the animals. […] After injection of the substances which are antinociceptively active in the formaldehyde test, the described behaviours of the animals are reduced or even eliminated. In the same manner as in the substance tests, in which the animals receive an injection of test substance before the formaldehyde, the control animals are injected with vehicle, i.e. solvent (for example 0.9% NaCl solution) before administration of the formaldehyde. The behaviour the animals after administration of the substance (n=10 per substance dose) is compared with a control group (n=10). On the basis of the quantification of the pain behaviour, the action of the substance in the formaldehyde test is determined as a percentage change of the control. ED50 calculations are carried out by regression analysis. The time of administration before the formaldehyde injection was selected as a function of the mode of administration of the compounds used according to the invention (intraperitoneal: 15 min; intravenous: 5 min).

Consider `O=C(O)C(Nc1cc(Cl)cc(Cl)c1)c1cc2ccccc2s1` (centres unmarked) [Example 2, (Benzo[b]thiophen-2-yl)-(3,5-dichlorophenylamino)acetic acid], for which, in assay [1], the inhibition at 10 µM was found to be 85%. Also, the “Inhibition (%) at dose” value in the assay on male albino mice (NMRI) (at 46.4 mg/kg) is 55% (at 46.4 mg/kg).

On to `O=C(O)C(Nc1cc(Cl)cc(Cl)c1)c1csc2ccccc12` (centres unmarked) [Example 3, (Benzo[b]thiophen-3-yl)-(3,5-dichlorophenylamino)acetic acid], for which the inhibition at 10 µM in assay [1] is 15%.

Regarding `O=C([O-])C(Nc1cc(Cl)cc(Cl)c1)c1cc2ccccc2o1.[Na+]` (centres unmarked) [Example 6, (Benzofuran-2-yl)-(3,5-dichlorophenylamino)acetic acid, sodium salt], in assay [1], the inhibition at 10 µM came to 97%. Further, the “Inhibition (%) at dose” value with male albino mice (NMRI) (at 10 mg/kg) was 42% (at 10 mg/kg).

As for `O=C([O-])C(Nc1cc(Cl)cc(Cl)c1)c1cc2ccccc2s1.[Na+]` (centres unmarked) [Example 7, (Benzo[b]thiophen-2-yl)-(3,5-dichlorophenylamino)acetic acid, sodium salt], the “% inhibition (percentage fraction of the bound radioactive ligand displaced from its specific binding)” value in assay [1] is recorded as 85%. The “Inhibition (%) at dose” value in the assay with male albino mice (NMRI) (at 46.4 mg/kg) is given as 11% (at 46.4 mg/kg).

Take `O=C([O-])C(Nc1cc(Cl)cc(Cl)c1)c1csc2ccccc12.[Na+]` (centres unmarked) [Example 8, (Benzo[b]thiophen-3-yl)-(3,5-dichlorophenylamino)acetic acid, sodium salt]: the “% inhibition (percentage fraction of the bound radioactive ligand displaced from its specific binding)” value in assay [1] is 24%.

On to “(Benzo[b]furan-2-yl)-(3,5-bis(trifluoromethyl)phenyl)acetic acid, sodium salt [Example 10]”, for which the “% inhibition (percentage fraction of the bound radioactive ligand displaced from its specific binding)” value in assay [1] worked out at 29%. Moreover, the “Inhibition (%) at dose” value in the assay on male albino mice (NMRI) (at 46.4 mg/kg) is given as 60% (at 46.4 mg/kg).

Turning to “(Benzo[b]thiophen-2-yl)-(3,5-bis(trifluoromethyl)phenyl)acetic acid, sodium salt [Example 9]”, the “% inhibition (percentage fraction of the bound radioactive ligand displaced from its specific binding)” value in assay [1] is 13%.

The values are drawn from patent publication US7754754B2, “Pharmaceutical formulations containing substituted 2 heteroarylaminoacetic acid compounds” (Gruenenthal GmbH, priority 2003, dated 2010).
